Bounds are passed on as bounds.

For test [1] the following is noted: cited from earlier work. An excerpt: Studies on the structure-activity relationship of neurotensin verified that positive charges at positions 8 and 9 are important but not prerequisite for its bioactivity. There is charge complementarity between NTS8–13 and its binding pocket: the positively- ...
Test [2] concerns human neurotensin receptor subtype-1 (hNTSR1). The test can be described thus: GPCR signaling assay using membrane-tethered peptide ligands, hNTSR1. The test is classed as cell-based. Particulars: strain IMFD-72ZsD, pGK421-NTSR1, flow cytometry; for fold increase in fluorescence intensity compared with α-factor: after 24 h cultivation, pH-adjusted SD medium, mean of 10,000 cells, n = 3; for rank order of ZsGreen fluorescence: membrane-tethered peptides, 24 h. The method, then: (§1) The cultured cells were washed and suspended in distilled water. The cell suspensions were observed using a BZ-9000 fluorescence microscope (Keyence, Osaka, Japan). Green fluorescence images were acquired with a 470/40 band-pass filter for excitation and a 535/50 band-pass filter for emission. Digital image intensities of green fluorescence were carried out, from four experiments each, with the ImageJ software (freely downloadable from the ImageJ website, http://rsbweb.nih.gov/ij/) and expressed as Integrated Density (IntDen) or its percent.
(§2) Flow cytometry measurements of green fluorescence followed previous procedures. In brief, GFP was detected using a BD FACSCanto II flow cytometer equipped with a 488-nm blue laser (Becton, Dickinson and Company, Franklin Lakes, NJ, USA); the data were analyzed using BD FACSDiva software (v5.0; Becton, Dickinson and Company). The GFP fluorescence signal was collected through a 530/30 nm band-pass filter and the GFP-A mean of 10,000 cells was defined as ‘green fluorescence intensity’.
GPCR signaling assays using membrane-tethered peptide ligands basically followed a previous procedure with some modifications. In brief, to assay signal activation from human GPCRs, yeast strains harboring the pGK421-based GPCR expression plasmids and pGK426-based peptide display plasmids were grown in SD medium (supplemented as needed) at 30 °C overnight, then the cells then were inoculated into 5 mL of the respective fresh SDM71 medium to give an initial OD600 = 0.1. The cells were incubated at 30 °C on a rotary shaker at 150 rpm, then the yeast cells were observed using a fluorescence microscope, diluted with 1 ml of sheath fluid, and fluorescence was analyzed by flow cytometry.
Data were analyzed using KaleidaGraph4.0. Statistical significance of the differences between more than two groups was calculated by one-way ANOVA, followed by Tukey’s post test. Z’ factor, a commonly used parameter reflecting the robustness and the quality of assays, was determined as follows: Z’ factor = 1 ‒ 3(SDpositive control + SDnegative control)/ (meanpositive control ‒ meannegative control), where “SD” represents standard deviation of multiple replicates of an assay.
A general note: In flow cytometry, cells or beads pass a laser one at a time.

The subject of test [3] is human somatostatin receptor subtype-2 (hSSTR2). The test can be described thus: GPCR signaling assay with exogenously added ligand, hSSTR2. In kind it is cell-based. The note with it: 4 h; for fold higher fluorescence on agonist addition / fold increase in fluorescence intensity on agonist stimulation: pGK421-SSTR2, with vs without 10 μM SST, 30 °C, pH 7.1 SD medium, flow cytometry, mean of 10,000 cells, n = 3. The method, then: as §1, §2
(§3) GPCR signaling assays with exogenously added ligands basically followed previous procedures. In brief, to assay signal activation from human GPCRs, yeast strains harboring the pGK421-based plasmids were grown in SD medium (supplemented as needed) at 30 °C overnight, then the cells then were inoculated into 5 mL of the respective fresh SD medium to give an initial OD600 = 0.03. The cells were incubated at 30 °C on a rotary shaker at 150 rpm for up to 18 h and harvested, washed, and resuspended in water to give an OD600 = 10. […] The plates were incubated at 30 °C with shaking (150 rpm) for 4 h, then the yeast cells were observed using a fluorescence microscope, diluted with 1 mL of sheath fluid, and fluorescence was analyzed by flow cytometry.

Test [4] has as its system human somatostatin receptor subtype-5 (hSSTR5). In words: GPCR signaling assay with exogenously added ligand, hSSTR5 (FIG1-promoter GFP reporter yeast). The note with it: 4 h; for fluorescence microscopy observation: 10 μM SST; for fold increase in fluorescence on agonist addition / fold increase in fluorescence intensity in response to agonist stimulation: pGK421-SSTR5, with vs without 10 μM SST, 30 °C, pH 7.1 SD medium, flow cytometry, mean of 10,000 cells, n = 3. In kind it is cell-based. The method, then: as §1, §2, §3

The test system of test [5] is human neurotensin receptor subtype-1 (hNTSR1). In words: Quantitative digital image analysis of ZsGreen fluorescence (microscopy, ImageJ), hNTSR1. Particulars: strain IMFD-72ZsD, pGK421-NTSR1; NTS at several concentrations, 4 h; 100 cells, n = 4. In kind it is cell-based. The method, then:
as §1, §3

The test system is the same in test [6]. The test can be described thus: GPCR signaling assay with exogenously added ligand, hNTSR1. The test is classed as cell-based. Particulars: 4 h; for fold higher fluorescence than in the absence of agonist / fold increase in fluorescence intensity in response to agonist stimulation: pGK421-NTSR1, with vs without 10 μM NTS, 30 °C, pH 7.1 SD medium, flow cytometry, mean of 10,000 cells, n = 3. The method, then: as §1, §2, §3

Setting [7] is: strain IMFD-70ZsD (ZsGreen, Gpa1p).
Setting [8] is: strain IMFD-72ZsD (ZsGreen, Gi3tp).

With “RRPYIL [Neurotensin-(8-13), pharmacophore of neurotensin, RRPYIL (cited from literature)]”, in test [1], the “potency and efficacy versus full-length NTS” value was “higher potency and efficacy than full-length NTS”.
On to “RRPYIL [NTS8–13, NTS 8-13 -Flag–Flo42 in pGK426; membrane-tethered NTS8–13]”, for which, in test [2], the “fold increase in fluorescence intensity compared with α-factor” value is recorded as “greater than 35 fold” and the “rank order of ZsGreen fluorescence” value is listed as “NTS8–13 > NTS > NMN > α-factor”.
Consider “KIPYIL [NMN, NMN–Flag–Flo42 in pGK426; membrane-tethered neuromedin N]”, for which, in test [2], the “fold increase in fluorescence intensity compared with α-factor” value is more than 1.5 fold and the “rank order of ZsGreen fluorescence” value is “NTS8–13 > NTS > NMN > α-factor”.
Consider somatostatin [SST], for which the fluorescence microscopy observation result in test [3] (hSSTR2-expressing IMFD-72ZsD, 10 μM SST, 40× and 100× objective) is “clearly exhibited changes in green fluorescence and morphology”; in test [4] (hSSTR5-expressing IMFD-70ZsD and IMFD-72ZsD (ZsGreen), 40× and 100× objective) it was “exhibited changes in green fluorescence and morphology”; in test [4] (hSSTR5-expressing IMFD-70 and IMFD-72 (EGFP)), “the fluorescence was too weak to allow observation with a fluorescence microscope”. Also, the “fold higher fluorescence on agonist addition” value in test [3] (strain IMFD-70 (EGFP, Gpa1p)) is 3.0 fold; in test [3] (strain IMFD-72 (EGFP, Gi3tp)) it was 4.6 fold. In addition, the “fold increase in fluorescence intensity on agonist stimulation” value is listed as 36 fold in test [3] (setting [7]) and 81 fold in test [3] (setting [8]). The “fold increase in fluorescence on agonist addition” value in test [4] (strain IMFD-70 (EGFP, Gpa1p)) was 3.9 fold; in test [4] (strain IMFD-72 (EGFP, Gi3tp)) it was 5.6 fold. Moreover, the “fold increase in fluorescence intensity in response to agonist stimulation” value in test [4] (strain IMFD-70Zs (single ZsGreen substitution, Gpa1p)) amounted to 33 fold; in test [4] (strain IMFD-70ZsD (double ZsGreen substitution, Gpa1p)), 83 fold; in test [4] (strain IMFD-72Zs (single ZsGreen substitution, Gi3tp)), 65 fold; in test [4] (strain IMFD-72ZsD (double ZsGreen substitution, Gi3tp)), 104 fold.
In the case of “KIPYIL [neuromedin N, neurotensin-like peptide, KIPYIL (cited from literature)]”, the biological activity result in test [1] was “very weak biological activity”.
As to neurotensin [NTS], the “digital intensity of green fluorescence (IntDen), concentration dependence” value in test [5] is “varied in a NTS-dependent manner”. For the same substance, the fluorescence microscopy observation entry in test [6] (hNTSR1-expressing IMFD-72ZsD, 10 μM NTS, 40× and 100× objective) is “clearly exhibited changes in green fluorescence and morphology”. Also, the “fold higher fluorescence than in the absence of agonist” value worked out at 1.3 fold in test [6] (strain IMFD-70 (EGFP, Gpa1p)) and 2.3 fold in test [6] (strain IMFD-72 (EGFP, Gi3tp)). In addition, the figures for the “fold increase in fluorescence intensity in response to agonist stimulation” value in test [6] (setting [7]) and in test [6] (setting [8]) were 7.9 fold and 45 fold, respectively.
